Data published in the NIST ThermoML archive (doi:10.1021/je700339f).

Assay: xn = mol fraction of the nth substance listed
Settings: 298 K, Liquid

ClCCCCCl [1,4-dichlorobutane] + CC(=O)N(C)C
mass density [kg/m3]
Settings | x2 = 0.0975 | x2 = 0.2001 | x2 = 0.2996 | x2 = 0.4017 | x2 = 0.5009 | x2 = 0.5981 | x2 = 0.6987 | x2 = 0.801 | x2 = 0.9012
100 kPa | 1116.3 | 1097.8 | 1079.3 | 1060 | 1040.7 | 1021.7 | 1001.1 | 980 | 958.6
500 kPa | 1116.6 | 1098.2 | 1079.6 | 1060.3 | 1041 | 1022 | 1001.3 | 980.3 | 958.8
1000 kPa | 1117 | 1098.6 | 1080 | 1060.6 | 1041.4 | 1022.3 | 1001.7 | 980.6 | 959.2
1500 kPa | 1117.4 | 1098.9 | 1080.3 | 1061 | 1041.7 | 1022.7 | 1002 | 980.8 | 959.5
2000 kPa | 1117.7 | 1099.3 | 1080.7 | 1061.3 | 1042 | 1023 | 1002.3 | 981.2 | 959.8
2500 kPa | 1118.1 | 1099.6 | 1081 | 1061.7 | 1042.4 | 1023.3 | 1002.8 | 981.6 | 960.1
3000 kPa | 1118.5 | 1100.1 | 1081.4 | 1062.1 | 1042.7 | 1023.7 | 1003.1 | 982 | 960.4
3500 kPa | 1118.9 | 1100.4 | 1081.8 | 1062.4 | 1043.1 | 1024 | 1003.4 | 982.2 | 960.7
4000 kPa | 1119.3 | 1100.8 | 1082.1 | 1062.8 | 1043.4 | 1024.4 | 1003.7 | 982.6 | 961
4500 kPa | 1119.6 | 1101.2 | 1082.5 | 1063.2 | 1043.7 | 1024.8 | 1004 | 982.9 | 961.3
5000 kPa | 1120 | 1101.5 | 1082.8 | 1063.4 | 1044.1 | 1025 | 1004.4 | 983.2 | 961.6
5500 kPa | 1120.4 | 1101.9 | 1083.2 | 1063.8 | 1044.5 | 1025.4 | 1004.7 | 983.4 | 961.9
6000 kPa | 1120.7 | 1102.2 | 1083.6 | 1064.2 | 1044.9 | 1025.6 | 1005 | 983.8 | 962.2
6500 kPa | 1121.1 | 1102.6 | 1083.9 | 1064.5 | 1045.2 | 1026 | 1005.3 | 984.1 | 962.6
7000 kPa | 1121.5 | 1102.9 | 1084.3 | 1064.9 | 1045.5 | 1026.4 | 1005.7 | 984.4 | 962.9
7500 kPa | 1121.9 | 1103.2 | 1084.6 | 1065.2 | 1045.8 | 1026.7 | 1006 | 984.8 | 963.1
8000 kPa | 1122.2 | 1103.6 | 1085 | 1065.5 | 1046.2 | 1027 | 1006.3 | 985 | 963.5
8500 kPa | 1122.5 | 1104 | 1085.4 | 1065.9 | 1046.6 | 1027.3 | 1006.6 | 985.4 | 963.7
9000 kPa | 1123 | 1104.3 | 1085.7 | 1066.2 | 1046.9 | 1027.7 | 1007 | 985.6 | 964
9500 kPa | 1123.2 | 1104.7 | 1086 | 1066.6 | 1047.2 | 1028 | 1007.3 | 986 | 964.3
10000 kPa | 1123.7 | 1105.2 | 1086.4 | 1067 | 1047.6 | 1028.5 | 1007.6 | 986.3 | 964.7
10500 kPa | 1124.1 | 1105.5 | 1086.8 | 1067.3 | 1047.9 | 1028.8 | 1008 | 986.7 | 965
11000 kPa | 1124.4 | 1105.8 | 1087.2 | 1067.6 | 1048.2 | 1029.1 | 1008.3 | 986.9 | 965.2
11500 kPa | 1124.7 | 1106.2 | 1087.5 | 1068 | 1048.6 | 1029.5 | 1008.6 | 987.3 | 965.6
11900 kPa | – | – | – | – | – | – | – | 987.6 | –
12000 kPa | 1125.1 | 1106.6 | 1087.8 | 1068.3 | 1048.9 | 1029.8 | 1008.9 | – | 965.9
12500 kPa | 1125.5 | 1106.8 | 1088.2 | 1068.7 | 1049.2 | 1030.1 | 1009.3 | 987.9 | 966.3
13000 kPa | 1125.8 | 1107.2 | 1088.5 | 1069 | 1049.6 | 1030.4 | 1009.6 | 988.2 | 966.5
13400 kPa | – | – | – | 1069.3 | 1049.9 | – | – | – | –
13500 kPa | 1126.1 | 1107.6 | 1088.9 | – | – | 1030.7 | 1009.9 | 988.5 | 966.8
14000 kPa | 1126.5 | 1107.9 | 1089.1 | 1069.7 | 1050.3 | 1031 | 1010.2 | 988.8 | 967.1
14500 kPa | 1126.8 | 1108.2 | 1089.5 | 1070 | 1050.6 | 1031.4 | 1010.5 | 989.1 | 967.4
15000 kPa | 1127.2 | 1108.6 | 1089.9 | 1070.3 | 1050.9 | 1031.6 | 1010.8 | 989.4 | 967.7
15500 kPa | 1127.6 | 1108.9 | 1090.2 | 1070.6 | 1051.2 | 1032 | 1011.1 | 989.7 | 968
16000 kPa | 1127.9 | 1109.3 | 1090.5 | 1071 | 1051.5 | 1032.3 | 1011.4 | 990 | 968.2
16400 kPa | 1128.2 | – | – | – | 1051.8 | – | – | – | –
16500 kPa | – | 1109.6 | 1090.9 | 1071.4 | – | 1032.6 | 1011.7 | 990.2 | 968.5
17000 kPa | 1128.6 | 1109.9 | 1091.2 | 1071.6 | 1052.1 | 1032.9 | 1012 | 990.5 | 968.7
17500 kPa | 1129 | 1110.3 | 1091.6 | 1072 | 1052.4 | 1033.2 | 1012.4 | 990.8 | 969.1
17900 kPa | – | – | – | – | 1052.7 | – | – | – | –
18000 kPa | 1129.3 | 1110.6 | 1091.8 | 1072.3 | – | 1033.5 | 1012.7 | 991.1 | 969.3
18500 kPa | 1129.6 | 1110.9 | 1092.2 | 1072.6 | 1053.1 | 1033.8 | 1013 | 991.4 | 969.6
19000 kPa | 1130 | 1111.3 | 1092.5 | 1073 | 1053.5 | 1034.2 | 1013.3 | 991.8 | 969.9
19500 kPa | 1130.3 | 1111.7 | 1092.8 | 1073.3 | 1053.8 | 1034.5 | 1013.6 | 992 | 970.1
20000 kPa | 1130.8 | 1112 | 1093.3 | 1073.8 | 1054.1 | 1034.8 | 1014 | 992.4 | 970.5
